Experimental data as given in US12098386B2, “Use of germ cells for preparing a micro hair follicle” (L'OREAL, priority 2016, dated 2024).

System: germ cells
Assay: Culture-amplification of germ cells on 3T3 feeder layer in Green 7F medium with or without ROCK inhibitor
Type: cell-based
From the text: The germ cell region, called the bulge (FIG. 1), is extracted from the connective tissue sheath (FIG. 2) and then placed in a petri dish containing 3T3i cells (FIG. 3).
The hair follicles are extracted from a surgical residue of scalp. Said residue is first cut into 5 mm^2 portions and then sectioned using a scalpel between the dermis and the hypodermis.
The follicles are extracted using ophthalmic surgery forceps and are then sectioned just above the papilla with a scalpel. The bulb is then recovered. At this stage, the bulb comprises two compartments: the dermal compartment (dermal papilla and connective tissue sheath) and the matrix cells which form a cell mass.
The epithelial part is separated from the dermal part using perfusion needles. Only the epithelial part is cultured.
The MEM medium+10% FCS+7F (called Green 7F medium) has the following composition:
After microdissection, the hair follicles in the telogen phase are deposited in Petri dishes 60 mm in diameter, seeded beforehand with 1 million 3T3 cells, and covered with the complete Green 7F culture medium; a culture of germ cells at confluence is obtained.
The telogen hair with the non-dissociated germ cell clump are isolated and deposited on a 3T3 feeder layer (FIG. 3). After 3 d of culture, the cells begin to proliferate in the form of a colony around the germ clump (FIG. 4). The cells reach subconfluence in 7 days (FIG. 5). […]

## C[C@@H](N)[C@H]1CC[C@H](C(=O)Nc2ccncc2)CC1 [Y27632]
Germ cells cultured in 7F medium containing the rock inhibitor (FIG. 6)
  Differentiation of germ cells into marker-positive keratinocytes (K15, CD29, CD200): keratinocytes that are positive for the K15, CD29 and CD200 markers
Green 7F medium, Y27632 at 10 μM, in the same medium without the rock inhibitor the cells do not proliferate (FIG. 7a/7b)
  Proliferation of the germ cells (reaching confluence): very rapidly reaching confluence
